Read-outs that look alike come from different tables or passages of the source.
Columns and labels:
[1] = system: DLD-1 (human colorectal carcinoma cell line); assay: MTT cytotoxicity assay, DLD-1; assay type: cell-based; settings: 48 hrs treatment
Method: (§1) Cytotoxic activities of all compounds were evaluated by MTT assay using KYSE-150 (human oesophagus carcinoma), MKN-45 (human gastric aednocarcinoma), DLD-1 (human colorectal carcinoma cell line), Hep G2 (human hepatocellular carcinoma). […] 3ag, 3al, 3an, 3ea and 3ha also have the same inhibitory effect on different cell lines with IC50 value lower than 10 μM. Thus, except 3ac, 3ad, 3ae, 3ah, and 3ab, the other compounds all exert definitely anti-cancer effect.
(§2) In this study, all compounds were dissolved in dimethyl sulfoxide (DMSO) to make stock solutions and further diluted in culture medium for this experiment. Human cancer cell lines, including one gastric adenocarcinoma cell line (MKN-45), one colon carcinoma cell line (DLD-1), one esophageal carcinoma cell line (KYSE-150) and one hepatocellular carcinoma cell line (HepG2) were cultured in RPMI 1640 or DMEM medium, containing 10% fetal bovine serum and 1% antibiotics (Penicillin and strep). The cell lines were cultured at 37° C. in a humidified environment containing 5% CO2. To determine the effects of the compounds on cell viability, a standard colorimetric 3-(4,5-dimethylthiazol-2-yl)-2,5-diphenyltetrazolium bromide (MTT) assay was used to test the cell number. Cells were seeded in a 96-well plate (4×10^3 cells/well) and allowed to attach overnight. After the recovery, cells were treated with 1.56, 3.125, 6.25, 12.5, 25, 50 μM of compounds in culture medium for 48 hrs. Then, 20 μL of MTT (5 mg/mL stock in PBS) per well was added into the medium (200 μL) and incubated for 4 hrs at 37° C. Finally, the culture medium was removed and 200 μL of DMSO were added to dissolve the purple formazan crystals. Absorbance of the solution was measured using microplate reader spectrophotometer (Bio-Rad Laboratories, Inc., Hercules, Calif.) at a wavelength of 570 nm.

KYSE-150 cells [2] = assay: Wound healing assay; assay type: cell-based, human; settings: 48 h
Method: Original magnification, 5×.
Further, wound-healing assay was used to test whether those novel compounds could affect cell motility.
A wound-healing assay was performed as follows: cells were seeded in 12 wells plate at 50% confluence in completed medium. After 24 hrs seeding, the monolayer was wounded by scoring with a sterile plastic tip (1 mL), then washed several times with medium to remove cell debris and then incubated in conditioned medium in the absence or presence of tested compounds for various periods of time up to 48 h. […] Cell migration into the wound surface was monitored by Olympus IX71 microscopy and digitally photographed.

[3] = system: Hep G2 (human hepatocellular carcinoma); assay: MTT cytotoxicity assay, Hep G2; assay type: cell-based; settings: HepG2, 48 hrs treatment
Method: as §1, §2

KYSE-150 cells [4] = assay: Wound healing assay; assay type: cell-based, human
[5] = system: MKN-45 (human gastric aednocarcinoma); assay: MTT cytotoxicity assay, MKN-45; assay type: cell-based; settings: 48 hrs treatment
Method: as §1, §2

[6] = system: KYSE-150 (human oesophagus carcinoma); assay: MTT cytotoxicity assay, KYSE-150; assay type: cell-based; settings: 48 hrs treatment
Method: as §1, §2

[7] = system: KYSE-150, MKN-45, DLD-1, Hep G2; assay: MTT cytotoxicity assay, summary over the test cell lines; assay type: cell-based; settings: Homo sapiens, summary of Table 6
Method: as §1, §2

[8] = all test cell lines, read-out: IC50, cell growth-inhibiting effect against all test cell lines (below or near)
[9] = on different (not all) cell lines, read-out: IC50, inhibitory effect on different cell lines

SMILES	IC50 [1] [µM]	cell migration into the wound (KYSE-150 cells [2]; 10 μM)	IC50 [3] [µM]	viability of KYSE-150 cells compared to controls (KYSE-150 cells [4]; 10 μM)	melting point [°C]	IC50 [5] [µM]	IC50 [6] [µM]	IC50 [7, 8] [µM]	IC50 [7, 9] [µM]	cell migration into the wound (KYSE-150 cells [2]; 5 μM)	viability of KYSE-150 cells compared to controls (KYSE-150 cells [4]; 5 μM)
O=C(Cc1ccc2ccccc2c1)c1ccccc1 [Compound 3aa, 2-(naphthalen-2-yl)-1-phenylethanone]	12.4	did not migrate into the wound	20.8	did not alter the viability	122 to 124	15.6	10.9				
COc1ccc(C(=O)Cc2ccc3ccccc3c2)cc1 [Compound 3ab, 1-(4-methoxyphenyl)-2-(naphthalen-2-yl) ethanone]	7.89	did not migrate into the wound	7.63	did not alter the viability	125 to 127	10.1	5.19	~10			
COc1ccccc1C(=O)Cc1ccc2ccccc2c1 [Compound 3ac, 1-(2-methoxyphenyl)-2-(naphthalen-2-yl) ethanone]	> 50		> 50		100 to 102	> 50	> 50				
COc1cccc(C(=O)Cc2ccc3ccccc3c2)c1 [Compound 3ad, 1-(3-methoxyphenyl)-2-(naphthalen-2-yl) ethanone]	> 50		> 50		102 to 103	> 50	> 50				
COc1cc(OC)cc(C(=O)Cc2ccc3ccccc3c2)c1 [Compound 3ae, 1-(3,5-dimethoxyphenyl)-2-(naphthalen-2-yl) ethanone]	> 50		42.8		70 to 71	> 50	> 50				
O=C(Cc1ccc2ccccc2c1)c1ccc(F)cc1 [Compound 3af, 1-(4-fluorophenyl)-2-(naphthalen-2-yl) ethanone]	5.27		4.23		145 to 147	4.04	2.56	~10			
O=C(Cc1ccc2ccccc2c1)c1ccc(Oc2ccccc2)cc1 [Compound 3ag, 2-(naphthalen-2-yl)-1-(4-phenoxyphenyl) ethanone]	4.95		4.84		139 to 141	> 50	1.19		< 10		
O=C(Cc1ccc2ccccc2c1)c1ccc(OC(F)(F)F)cc1 [Compound 3ah, 2-(naphthalen-2-yl)-1-(4-(trifluoromethoxy)phenyl) ethanone]	> 50		> 50		153 to 154	> 50	> 50				
O=C(Cc1ccc2ccccc2c1)c1ccc(Br)cc1 [Compound 3ai, 1-(4-bromophenyl)-2-(naphthalen-2-yl) ethanone]	3.3		1.32		157 to 159	4.45	2.02	~10			
Cc1ccc(C(=O)Cc2ccc3ccccc3c2)cc1 [Compound 3aj, 2-(naphthalen-2-yl)-1-(p-tolyl) ethanone]	> 50		> 50		144 to 146	12	18.4				
O=C(Cc1ccc2ccccc2c1)c1ccc(CO)cc1 [Compound 3ak, 1-(4-(hydroxymethyl)phenyl)-2-(naphthalen-2-yl) ethanone]	48.2		> 50		97 to 98	> 50	31.3				
O=C(Cc1ccc2ccccc2c1)c1ccc(C(F)(F)F)cc1 [Compound 3al, 2-(naphthalen-2-yl)-1-(4-(trifluoromethyl)phenyl) ethanone]	37.4		29.9		179 to 181	> 50	4.75		< 10		
N#Cc1ccc(C(=O)Cc2ccc3ccccc3c2)cc1 [Compound 3am, 4-(2-(naphthalen-2-yl)acetyl) benzonitrile]	> 50		> 50		152 to 154	> 50	33.5				
[2H]C(C(=O)c1ccccc1)c1ccc2ccccc2c1 (stereo not shown) [Compound 3an, 2-(naphthalen-2-yl)-1-phenylethanone-2-D]	> 50	did not migrate into the wound	22	did not alter the viability	129 to 130	43.1	7.43		< 10		
COc1ccc(OC)c2cc(CC(=O)c3ccccc3)ccc12 [Compound 3ba, 2-(5,8-dimethoxynaphthalen-2-yl)-1-phenylethanone]	> 50		> 50		145 to 146	> 50	> 50				
Cc1ccc(C)c2cc(CC(=O)c3ccccc3)ccc12 [Compound 3ca, 2-(5,8-dimethylnaphthalen-2-yl)-1-phenylethanone]	> 50		> 50		123 to 124	> 50	19.2				
Cc1cc2ccc(CC(=O)c3ccccc3)cc2cc1C [Compound 3da, 2-(6,7-dimethylnaphthalen-2-yl)-1-phenylethanone]	0.78		> 50		142 to 144	3.71	7.69			did not migrate into the wound	did not alter the viability
C(#Cc1ccc2cc3c(cc2c1)OCCO3)c1ccccc1 [Compound 3ga, 7-(phenylethynyl)-2,3-dihydronaphtho [2,3-b][1,4] dioxine]	19.7	did not migrate into the wound	45.2	did not alter the viability	130 to 132	35.1	24.7				
C(#Cc1ccc2cc3c(cc2c1)OCO3)c1ccccc1 [Compound 3ha, 6-(phenylethynyl) naphtho [2,3-d][1,3] dioxole]	0.55		0.65		154 to 155	20.8	3.52		< 10		

— US9783519B2, “Palladium/silver co-catalyzed tandem reactions synthesis of phenylacetophenone derivatives by oxabenzonorbornadienes with terminal alkynes and their anti-tumor or anti-cancer activities” (Hong Kong Baptist University, priority 2015, dated 2017)
